The source of these data is ChEMBL document CHEMBL1201862, “PubChem BioAssay data set” (2004).

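Cells were grown in 96-well plates and exposed to each compound for 48 hours at five concentrations; endpoints were interpolated linearly between bracketing concentrations, or set to the highest concentration if not reached. GI50 marks 50% less growth.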 Active and inactive are the calls of the source. Rule as the data show it: active = GI50 up to about 1.1 µM and inactive = higher.

Test systems include SF-268; NCI-H23; SNB-19; K562; RPMI-8226; M14; SF-295; IGROV-1; SNB-75; 786-0; SK-OV-3; U-251; NCI-H226; CCRF-CEM; RXF 393; KM12; UACC-257; HT-29; CAKI-1; A549.
Assay in all cases: inhibition of tumour cell growth, NCI panel, 48 h

For `COc1cc(OCCN(C)C)c2[nH]c(C(=O)N3CC(CCl)c4ccc(N)cc43)cc2c1` (stereo not given), the GI50 in the experiment with SF-268 was 0.0264 µM (active); in the experiment with NCI-H23, 0.0269 µM (active); in the experiment on SNB-19, 0.114 µM (active); with K562 it was 0.0239 µM (active); in the experiment on RPMI-8226, 0.0358 µM (active); in the experiment on M14 it was 0.0632 µM (active). The GI50 in the experiment on SF-295 was 0.0369 µM (active); with IGROV-1, 0.0148 µM (active); in the experiment on SNB-75, 0.0676 µM (active); in the experiment with 786-0 it was 0.0202 µM (active); in the experiment with SK-OV-3, 1.04 µM (active); with U-251, 0.0432 µM (active). Moreover, the GI50 in the experiment with NCI-H226 is 0.0865 µM (active); in the experiment on CCRF-CEM, 0.0199 µM (active); in the experiment on RXF 393, 0.0204 µM (active); with KM12, 0.0324 µM (active); with UACC-257 it was 0.0546 µM (active); in the experiment on HT-29, < 0.0246 µM (active). The GI50 in the experiment on CAKI-1 was 0.022 µM (active); with A549 it was 0.0377 µM (active).

For `COC(=O)C1=C(C[S+]([O-])c2ccccc2[N+](=O)[O-])ON(C)C1c1ccccc1` (stereo not given), the GI50 in the experiment with SF-268 was 27.5 µM (inactive); in the experiment with NCI-H23, > 100 µM (inactive); in the experiment with SNB-19, > 100 µM (inactive); in the experiment with K562, 22.4 µM (inactive); in the experiment on RPMI-8226 it was 34 µM (inactive); with M14 it was 94 µM (inactive). Moreover, the GI50 in the experiment on SF-295 was 65.8 µM (inactive); in the experiment with IGROV-1, > 100 µM (inactive); with SNB-75 it was 24.8 µM (inactive); in the experiment with 786-0 it was 40.6 µM (inactive); with SK-OV-3, > 100 µM (inactive); in the experiment on U-251, 34.4 µM (inactive). Besides, the GI50 was 37.8 µM (inactive) with NCI-H226; 10.5 µM (inactive) in the experiment with CCRF-CEM; 25.4 µM (inactive) with RXF 393; 55.5 µM (inactive) in the experiment on KM12; 35.2 µM (inactive) with UACC-257; 32.1 µM (inactive) with HT-29. In addition, the GI50 in the experiment with CAKI-1 is 45.7 µM (inactive); with A549, 47.2 µM (inactive).

Regarding `COc1ccc(/C=C2/CSCC3=C2N=C(S)NC3c2ccc(OC)c(OC)c2OC)c(OC)c1OC` (stereo not given), the GI50 was 16.8 µM (inactive) in the experiment on SF-268; 18.9 µM (inactive) with NCI-H23; 20.1 µM (inactive) in the experiment on SNB-19; 7.6 µM (inactive) in the experiment on K562; 3.7 µM (inactive) in the experiment on RPMI-8226; 12.6 µM (inactive) with M14. The GI50 in the experiment with SF-295 is 32.6 µM (inactive); with IGROV-1, 20 µM (inactive); with SNB-75 it was 0.209 µM (active); with 786-0, 13.8 µM (inactive); in the experiment on SK-OV-3, 49.7 µM (inactive); in the experiment on U-251 it was 7.48 µM (inactive). In addition, the GI50 was 35 µM (inactive) with NCI-H226; 3.4 µM (inactive) with CCRF-CEM; 14.4 µM (inactive) in the experiment with RXF 393; 12.1 µM (inactive) in the experiment with KM12; 14.8 µM (inactive) with UACC-257; 12.6 µM (inactive) in the experiment on HT-29. Also, the results for the GI50 with CAKI-1 and with A549 were 36.6 µM (inactive) and 24.8 µM (inactive), respectively.

With `COc1c2c(nc3ccccc13)-c1cc(C(CC(=O)OC(C)(C)C)C(=O)OC(C)C)c(CO)c(=O)n1C2` (stereo not given), the GI50 was > 62.8 µM (inactive) with SF-268; 55.7 µM (inactive) in the experiment with NCI-H23; 53.8 µM (inactive) in the experiment on SNB-19; 33.6 µM (inactive) in the experiment on K562; 21.3 µM (inactive) in the experiment on RPMI-8226; 39 µM (inactive) with M14. Besides, the GI50 in the experiment on SF-295 is 29.2 µM (inactive); in the experiment on IGROV-1, 47.4 µM (inactive); in the experiment with SNB-75 it was > 93.8 µM (inactive); in the experiment with 786-0, 30.5 µM (inactive); in the experiment with SK-OV-3 it was > 40.2 µM (inactive); in the experiment with U-251, 42.5 µM (inactive). In addition, the GI50 was 67.8 µM (inactive) with NCI-H226; 4.48 µM (inactive) in the experiment with CCRF-CEM; > 100 µM (inactive) in the experiment with RXF 393; > 100 µM (inactive) in the experiment on KM12; > 100 µM (inactive) in the experiment on UACC-257; 58.5 µM (inactive) with HT-29. The GI50 with CAKI-1 was 4.22 µM (inactive); in the experiment on A549, 52.8 µM (inactive).

Regarding `CC1CC(c2ccc(Cl)c(Cl)c2)=Nc2ccccc2S1` (stereo not given), the GI50 in the experiment with SF-268, in the experiment on NCI-H23, in the experiment with SNB-19, in the experiment with K562, in the experiment on RPMI-8226 and with M14 was > 100 µM (inactive) in each case. The GI50 in the experiment with SF-295, with IGROV-1, in the experiment on SNB-75, with 786-0, in the experiment on SK-OV-3 and in the experiment on U-251 was > 100 µM (inactive) in each case. Besides, the GI50 in the experiment on NCI-H226 is > 100 µM (inactive); in the experiment on CCRF-CEM, 41.9 µM (inactive); in the experiment on RXF 393, > 100 µM (inactive); in the experiment on KM12, > 100 µM (inactive); with UACC-257, > 100 µM (inactive); in the experiment with HT-29, > 100 µM (inactive). In addition, the GI50 in the experiment with CAKI-1 and with A549 was > 100 µM (inactive) in each case.

`Nc1nc(Cl)c(N)c(NC23CC4CC(CC(C4)C2)C3)n1`: the GI50 in the experiment on SF-268 was 2.57 µM (inactive); in the experiment with NCI-H23, 2.23 µM (inactive); with SNB-19, 1.63 µM (inactive); in the experiment with K562, 2.08 µM (inactive); in the experiment on RPMI-8226, 2.25 µM (inactive); in the experiment with M14, 1.36 µM (inactive). Besides, the GI50 is 2.78 µM (inactive) in the experiment with SF-295; 3.85 µM (inactive) in the experiment with IGROV-1; 2.1 µM (inactive) in the experiment with SNB-75; 1.67 µM (inactive) in the experiment with 786-0; 4.32 µM (inactive) in the experiment on SK-OV-3; 1.66 µM (inactive) with U-251. The GI50 was 1.92 µM (inactive) with NCI-H226; 1.62 µM (inactive) in the experiment on CCRF-CEM; 1.61 µM (inactive) with RXF 393; 1.73 µM (inactive) with KM12; 2.36 µM (inactive) with UACC-257; 1.79 µM (inactive) with HT-29. Further, the GI50 is 1.93 µM (inactive) in the experiment with CAKI-1 and 2.13 µM (inactive) in the experiment with A549.

For `O=c1cc(-c2ccc(Cl)cc2)oc2cc(OCCCOc3ccc4c(=O)cc(-c5ccc(Cl)cc5)oc4c3)ccc12`, the GI50 in the experiment on SF-268, in the experiment with NCI-H23, in the experiment on SNB-19, in the experiment with K562, with RPMI-8226 and in the experiment on M14 was > 100 µM (inactive) in each case. The GI50 in the experiment on SF-295 is > 100 µM (inactive); in the experiment on IGROV-1, > 100 µM (inactive); in the experiment with SNB-75 it was 45.2 µM (inactive); in the experiment with 786-0, > 100 µM (inactive); with SK-OV-3, > 100 µM (inactive); with U-251, > 100 µM (inactive). Besides, the GI50 in the experiment with NCI-H226, in the experiment with CCRF-CEM, in the experiment on RXF 393, in the experiment on KM12, in the experiment with UACC-257 and with HT-29 was > 100 µM (inactive) each time. Besides, the GI50 with CAKI-1 and in the experiment with A549 was > 100 µM (inactive) in each case.

For the compound `O=C(NCCN(CCNC(=O)c1cccc(=O)n1O)CCN(CCNC(=O)c1cccc(=O)n1O)CCNC(=O)c1cccc(=O)n1O)c1cccc(=O)n1O`, the GI50 in the experiment on SF-268, in the experiment with NCI-H23, with SNB-19, in the experiment on K562, in the experiment on RPMI-8226 and in the experiment with M14 was > 100 µM (inactive) each time. Besides, the GI50 in the experiment with SF-295, with IGROV-1, in the experiment on SNB-75, in the experiment on 786-0, in the experiment on SK-OV-3 and in the experiment on U-251 was > 100 µM (inactive) each time. Besides, the GI50 with NCI-H226 was > 100 µM (inactive); in the experiment with CCRF-CEM, > 100 µM (inactive); with RXF 393, > 100 µM (inactive); in the experiment on KM12 it was > 100 µM (inactive); with UACC-257 it was > 100 µM (inactive); in the experiment with HT-29, 89.9 µM (inactive). The GI50 with CAKI-1 and with A549 was > 100 µM (inactive) each time.

`CC(=O)Nc1c(S(=O)(=O)c2ccccc2)c(C)c(C)n1CCN(C)C`: the GI50 in the experiment with SF-268 was > 100 µM (inactive); in the experiment on NCI-H23 it was > 100 µM (inactive); with SNB-19, > 100 µM (inactive); in the experiment with K562, > 100 µM (inactive); with RPMI-8226, > 100 µM (inactive); in the experiment with M14, 70.3 µM (inactive). Further, the GI50 in the experiment with SF-295, with IGROV-1, with SNB-75, in the experiment with 786-0, in the experiment on SK-OV-3 and in the experiment with U-251 was > 100 µM (inactive) each time. Besides, the GI50 in the experiment with NCI-H226, with CCRF-CEM, with RXF 393, in the experiment with KM12, with UACC-257 and in the experiment on HT-29 was > 100 µM (inactive) throughout. The GI50 with CAKI-1 and with A549 was > 100 µM (inactive) each time.
